# Measured values taken from US4839386A, “Ionic bis (Dicarboxylato) palladate (II)” (Engelhard Corporation, priority 1987, dated 1989).
# Several values for one entry are separate records, joined by “and”; a condition that tells them apart may be missing. Equal entries are not always repeated. Where two headings read alike, the source gives them in different places.
# Tests used:
# S 180 Ascites = experiment: effective dose (ED90) and therapeutic index, S 180 ascites, method of Miller and Taiter; format: in vivo, mice; design: ED90: unit not given here; details: for Therapeutic Index: LD50/ED90; for ED90: dose which causes a 50% increase in life span in 90% of the test animals, determined graphically
# Protocol: The effective dose (ED90), lethal dose (LD50) and therapeutic index (TI) were determined via the method of Miller and Taiter (Reported by R. A. Turner, "Screening Methods in Pharmacology", Academic Press, New York, pages 61-62 (1965)).
# In this study Ed90 represents the dose which causes a 50% increase in life span (ILS) in 90% of the test animals (mice) determined graphically. The LD50 value represents the lethal dose to 50% of said animals (Therapeutic Index=LD50 /Ed90).
# [1] = solubility in water at room temperature
# S180 ascites = experiment: Anti-Tumor Screening; S180 ascites in mice (% increase in life span, survivors); format: in vivo, female CFW Swiss mice; details: for Best % ILS (Dosage): Table 4
# Protocol: The compounds used in this invention were evaluated against S180 ascites in female CFW Swiss mice. The mice were weighed (average weight: 20 g), placed into cages (six mice to a cage) and on day zero the mice were inoculated with 0.2 ml of a freshly prepared saline suspension (0.15M NaC1) containing 1×10^7 tumor cells/ml or a total of 2×10^6 cells. This inoculum was freshly prepared using "transfer" mice which had been injected with tumor cells the previous week; it was obtained via the following steps (1) the removal of cells from the peritoneal cavity of the sacrificed transfer mouse, (2) alternate centrifugation and washing operations (2-3 times with cold saline) to remove blood and other components, and (3) dilution of the volume of the packed cell with saline (1:3). A final centrifugation was carried out at 1000 RPM over a two minute period. A cell count was made on a 2000-fold dilution of this 1:3 suspension by means of a Coulter Counter. A final dilution to 1×10^7 cells/ml was made based on the average count.
# On day 1, solutions of the test compounds were prepared and each mouse in a set of six was injected with the same test compound at the same dosage. The doses were based on the average weight of the animals (cage weight). Also, beginning on day 1 two controls were employed containing six mice per control:
# (1) Normal Control: This consisted solely of the carrier or diluent used in combination with the test compound; and
# (2) Positive Control: This consisted solely of the known anti-tumor agent cis-[Pt(NH3)2 C12 ] in saline (8 mg/kg) to test the response of the biological system.
# The effectiveness of a test compound was measured in terms of the % increase in life span (% ILS) of the test mice relative to the Normal Control (Calculated from the day of tumor inoculation, i.e., day zero). To standardize the test data and permit intercomparisons, the day of evaluation was arbitrarily taken as that day corresponding to twice the mean life span (or average day of death) of the control. This established a practical upper limit of 100% on the % ILS attainable. For calculation purposes the survivors on the day of evaluation were considered to have died on that day. The % ILS was calculated as follows:
# % ILS=mean-life span of test mice/mean-life span of control
# ILS values in excess of 50% were interpreted as being indicative of anti-tumor cell activity in animals whereas, values in excess of 75% indicated excellent activity.
# The test compounds were evaluated in water.
# [2] = system: testicular and ovarian tumors; details: background; cited from earlier work
Molecule,Therapeutic Index (S 180 Ascites),ED90 (S 180 Ascites),% ILS (S180 ascites; 10 mg/kg),Survivors (S180 ascites; 10 mg/kg),Survivors (S180 ascites; 20 mg/kg),Survivors (S180 ascites; 40 mg/kg),Survivors (S180 ascites; 80 mg/kg),Best % ILS (Dosage) (S180 ascites; 160 mg/kg),% ILS (S180 ascites; 20 mg/kg),% ILS (S180 ascites; 40 mg/kg) [%],% ILS (S180 ascites; 80 mg/kg),% ILS (S180 ascites; 160 mg/kg),Survivors (S180 ascites; 160 mg/kg),% ILS (S180 ascites; 320 mg/kg) [%],Survivors (S180 ascites; 320 mg/kg),% ILS (S180 ascites; 50 mg/kg) [%],Survivors (S180 ascites; 50 mg/kg),% ILS (S180 ascites; 100 mg/kg) [%],Survivors (S180 ascites; 100 mg/kg),% ILS (S180 ascites; 200 mg/kg) [%],further results
"CCC(C(=O)[O-])C(=O)[O-].CCC(C(=O)[O-])C(=O)[O-].[K+].[K+].[Pd+2] [Example 1, Potassium Bis(Ethylmalonato)palladate(II)]",2.1,150,-3%,0 of 6,0 of 6,0 of 6,0 of 6,94%,–,–,–,–,–,–,–,–,–,–,–,–,"solubility in water [1]: 70 mg/mL; % ILS (S180 ascites; 5 mg/kg): 6%; Survivors (S180 ascites; 5 mg/kg): 0 of 6; % ILS (S180 ascites; 160 mg/kg, listed as Ex. 1): 94% and 55%; Survivors (S180 ascites; 160 mg/kg, listed as Ex. 1): 5 of 6 and 1 of 6; Survivors (S180 ascites; 320 mg/kg, listed as Ex. 1): 0 of 6 and 1 of 6"
"O=C([O-])C(=O)C(=O)[O-].O=C([O-])C(=O)C(=O)[O-].[K+].[K+].[Pd+2] [Example 2, Potassium Bis(Ketomalonato)palladate(II)]",2.0,200,4%,0 of 6,0 of 6,0 of 6,1 of 6,81%,4%,4,13%,81%,5 of 6,17,0 of 6,–,–,–,–,–,solubility in water: 6.7 mg/mL
"CC(C(=O)[O-])C(=O)[O-].CC(C(=O)[O-])C(=O)[O-].[K+].[K+].[Pd+2] [Example 3, Potassium Bis(Methylmalonato)palladate(II)]",1.1,160,–,–,–,–,–,–,–,–,–,–,–,–,–,2,0 of 6,54,2 of 6,54,solubility in water [1]: 21 mg/mL; % ILS (S180 ascites; 6.25 mg/kg): 11%; Survivors (S180 ascites; 6.25 mg/kg): 0 of 6; % ILS (S180 ascites; 12.5 mg/kg): 2%; Survivors (S180 ascites; 12.5 mg/kg): 0 of 6; % ILS (S180 ascites; 25 mg/kg): -6%; Survivors (S180 ascites; 25 mg/kg): 0 of 6; Best % ILS (Dosage) (S180 ascites; 100 mg/kg): 54%; Survivors (S180 ascites; 200 mg/kg): 0 of 6; % ILS (S180 ascites; 400 mg/kg): -83%; Survivors (S180 ascites; 400 mg/kg): 0 of 6
"O=C([O-])C(O)C(=O)[O-].O=C([O-])C(O)C(=O)[O-].[K+].[K+].[Pd+2] [Example 4, Potassium Bis(Tartronato)palladate(II)]",2.1,190,–,–,–,–,–,–,–,–,–,–,–,–,–,11,0 of 6,68,3 of 6,76,solubility in water: 2 mg/mL; % ILS (S180 ascites; 12.5 mg/kg): 1%; Survivors (S180 ascites; 12.5 mg/kg): 0 of 6; % ILS (S180 ascites; 25 mg/kg): 12%; Survivors (S180 ascites; 25 mg/kg): 0 of 6; Survivors (S180 ascites; 200 mg/kg): 0 of 6; Best % ILS (Dosage) (S180 ascites; 200 mg/kg): 76%; % ILS (S180 ascites; 400 mg/kg): 14%; Survivors (S180 ascites; 400 mg/kg): 3 of 6
"O=C([O-])c1ccccc1C(=O)[O-].O=C([O-])c1ccccc1C(=O)[O-].[K+].[K+].[Pd+2] [Example 5, Potassium Bis(phthalato)palladate(II)]",2.3,220,–,–,–,–,–,–,–,–,–,–,–,–,–,18,0 of 6,38,1 of 6,79,solubility in water [1]: 80 mg/mL; Survivors (S180 ascites; 200 mg/kg): 2 of 6; Best % ILS (Dosage) (S180 ascites; 200 mg/kg): 79%; % ILS (S180 ascites; 400 mg/kg): 25%; Survivors (S180 ascites; 400 mg/kg): 0 of 6
"O=C([O-])C1(C(=O)[O-])CCC1.O=C([O-])C1(C(=O)[O-])CCC1.[K+].[K+].[Pd+2] [Example 6, Potassium Bis(Cyclobutanedicarboxylato)palladate(II)]",1.1,210,-4%,0 of 6,0 of 6,0 of 6,0 of 6,50%,9%,7,-7%,50%,0 of 6,-75,0 of 6,–,–,–,–,–,solubility in water: 200 mg/mL
"CC(C)(C(=O)[O-])C(=O)[O-].CC(C)(C(=O)[O-])C(=O)[O-].[K+].[K+].[Pd+2] [Example 7, Potasium Bis(Dimethylmalonato)palladate(II)]",–,210,-15%,0 of 6,0 of 6,0 of 6,0 of 6,61%,0%,-8,-11%,61%,1 of 6,26,0 of 6,–,–,–,–,–,–
O=C([O-])CC(=O)[O-].O=C([O-])CC(=O)[O-].[K+].[K+].[Pd+2] [K2 [Pd(Malonate)2]],–,120,6% and 8%,0 of 6,0 of 6,0 of 6,3 of 6 and 2 of 6,82% and 86%,-1% and 8%,-12,69% and 66%,82% and 86%,2 of 6 and 3 of 6,-74,0 of 6,–,–,–,–,–,–
"O=C([O-])C(=O)[O-].O=C([O-])C(=O)[O-].[K+].[K+].[Pd+2] [K2 [Pd(Oxalate)2], reference compound]",–,–,–,–,–,–,–,–,–,–,–,–,–,–,–,-7,0 of 6,-9,1 of 6,-71,% ILS (S180 ascites; 12.5 mg/kg): 2%; Survivors (S180 ascites; 12.5 mg/kg): 0 of 6; % ILS (S180 ascites; 25 mg/kg): 33%; Survivors (S180 ascites; 25 mg/kg): 0 of 6; Survivors (S180 ascites; 200 mg/kg): 0 of 6
"cis-[Pt(NH3)2 -Cl2 ] [Positive Control, reference compound]",–,–,–,–,–,–,–,–,–,–,–,–,–,–,–,–,–,–,–,–,regression of testicular and ovarian tumors (in words) [2]: singularly successful in bringing about a regression of testicular and ovarian tumors; Positive Control Survivors (S180 ascites; 8 mg/kg in saline): 0 of 6 and 1 of 6 and 2 of 6 and 4 of 6
